PubChem BioAssay AID1963960 (Molecular Pharmacology Branch, DTP, NCI, 2024)
Where “and” joins values, the source holds several entries; their conditions need not be identical. Equal values may be shown once.

System: MDA-MB-468 spheroids with HUVEC/MSC, viability
Test: Anticancer human tumor MDA-MB-468 cell line growth inhibition [PI3K];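 also: spheroids exposed to agents for seven days before readout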;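 as to viability, T/C: 100% = DMSO vehicle control viability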
Details: for viability, T/C: stronger effect = lower value
Outline: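 Agents were dosed from a top concentration near clinical Cmax (otherwise 10 microM) in half-log decrements, alone or combined with PI3K inhibitors. The spheroids contain tumor cells plus endothelial (HUVEC) and MSC stroma; viability is measured.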

[1] = curve of first compound, second compound 0.0316 µM
[2] = curve of first compound, second compound 0.1 µM
[3] = curve of first compound, second compound 0.316 µM
[4] = curve of first compound, second compound 1 µM
[5] = curve of first compound, second compound 3.16 µM
[6] = curve of first compound, second compound 10 µM
[7] = second compound 0.0316 µM, first compound 0.0316 µM
[8] = second compound 0.0316 µM, first compound 0.1 µM
[9] = second compound 0.0316 µM, first compound 0.316 µM
[10] = second compound 0.0316 µM, first compound 1 µM
[11] = second compound 0.0316 µM, first compound 3.16 µM
[12] = second compound 0.0316 µM, first compound 10 µM
[13] = second compound 0.1 µM, first compound 0.0316 µM
[14] = second compound 0.1 µM, first compound 0.1 µM
[15] = second compound 0.1 µM, first compound 0.316 µM
[16] = second compound 0.1 µM, first compound 1 µM
[17] = second compound 0.1 µM, first compound 3.16 µM
[18] = second compound 0.1 µM, first compound 10 µM
[19] = second compound 0.316 µM, first compound 0.0316 µM
[20] = second compound 0.316 µM, first compound 0.1 µM
[21] = second compound 0.316 µM, first compound 0.316 µM
[22] = second compound 0.316 µM, first compound 1 µM
[23] = second compound 0.316 µM, first compound 3.16 µM
[24] = second compound 0.316 µM, first compound 10 µM
[25] = second compound 1 µM, first compound 0.0316 µM
[26] = second compound 1 µM, first compound 0.1 µM
[27] = second compound 1 µM, first compound 0.316 µM
[28] = second compound 1 µM, first compound 1 µM
[29] = second compound 1 µM, first compound 3.16 µM
[30] = second compound 1 µM, first compound 10 µM
[31] = second compound 3.16 µM, first compound 0.0316 µM
[32] = second compound 3.16 µM, first compound 0.1 µM
[33] = second compound 3.16 µM, first compound 0.316 µM
[34] = second compound 3.16 µM, first compound 1 µM
[35] = second compound 3.16 µM, first compound 3.16 µM
[36] = second compound 3.16 µM, first compound 10 µM
[37] = second compound 10 µM, first compound 0.0316 µM
[38] = second compound 10 µM, first compound 0.1 µM
[39] = second compound 10 µM, first compound 0.316 µM
[40] = second compound 10 µM, first compound 1 µM
[41] = second compound 10 µM, first compound 3.16 µM
[42] = second compound 10 µM, first compound 10 µM

Cn1cnc2c(F)c(Nc3ccc(Br)cc3Cl)c(C(=O)NOCCO)cc21 + COc1c(OCCCN2CCOCC2)ccc2c3n(c(=NC(=O)c4cnc(N)nc4)nc12)CCN3
IC50 (curve of first compound, second compound 0.00316 µM): > 3000 nM | IC50 (curve of first compound, second compound 0.01 µM): > 3000 nM | IC50 [1]: 1080 nM | IC50 [2]: 114 nM | IC50 [3]: < 9.49 nM | IC50 [4]: < 9.49 nM | viability, T/C (second compound 0.00316 µM, first compound 0.00949 µM): 80.8% | viability, T/C (second compound 0.00316 µM, first compound 0.03 µM): 88.8% | viability, T/C (second compound 0.00316 µM, first compound 0.0949 µM): 84.4% | viability, T/C (second compound 0.00316 µM, first compound 0.3 µM): 78.3% | viability, T/C (second compound 0.00316 µM, first compound 0.949 µM): 62.5% | viability, T/C (second compound 0.00316 µM, first compound 3 µM): 55.8% | viability, T/C (second compound 0.01 µM, first compound 0.00949 µM): 74.8% | viability, T/C (second compound 0.01 µM, first compound 0.03 µM): 76.6% | viability, T/C (second compound 0.01 µM, first compound 0.0949 µM): 81.1% | viability, T/C (second compound 0.01 µM, first compound 0.3 µM): 64.9% | viability, T/C (second compound 0.01 µM, first compound 0.949 µM): 60.6% | viability, T/C (second compound 0.01 µM, first compound 3 µM): 49.3% | viability, T/C (second compound 0.0316 µM, first compound 0.00949 µM): 68% | viability, T/C (second compound 0.0316 µM, first compound 0.03 µM): 69.7% | viability, T/C (second compound 0.0316 µM, first compound 0.0949 µM): 64.2% | viability, T/C (second compound 0.0316 µM, first compound 0.3 µM): 57.3% | viability, T/C (second compound 0.0316 µM, first compound 0.949 µM): 53.8% | viability, T/C (second compound 0.0316 µM, first compound 3 µM): 37.3% | viability, T/C (second compound 0.1 µM, first compound 0.00949 µM): 55.2% | viability, T/C (second compound 0.1 µM, first compound 0.03 µM): 47.9% | viability, T/C (second compound 0.1 µM, first compound 0.0949 µM): 51.2% | viability, T/C (second compound 0.1 µM, first compound 0.3 µM): 46.4% | viability, T/C (second compound 0.1 µM, first compound 0.949 µM): 32.1% | viability, T/C (second compound 0.1 µM, first compound 3 µM): 15.6% | viability, T/C (second compound 0.316 µM, first compound 0.00949 µM): 26.5% | viability, T/C (second compound 0.316 µM, first compound 0.03 µM): 23.4% | viability, T/C (second compound 0.316 µM, first compound 0.0949 µM): 18.5% | viability, T/C (second compound 0.316 µM, first compound 0.3 µM): 16.4% | viability, T/C (second compound 0.316 µM, first compound 0.949 µM): 11.8% | viability, T/C (second compound 0.316 µM, first compound 3 µM): 4.57% | viability, T/C (second compound 1 µM, first compound 0.00949 µM): 2.75% | viability, T/C (second compound 1 µM, first compound 0.03 µM): 2.53% | viability, T/C (second compound 1 µM, first compound 0.0949 µM): 1.74% | viability, T/C (second compound 1 µM, first compound 0.3 µM): 1.38% | viability, T/C (second compound 1 µM, first compound 0.949 µM): 1.4% | viability, T/C (second compound 1 µM, first compound 3 µM): 0.51%

C#Cc1c(F)ccc2cc(O)cc(-c3ncc4c(N5CC6CCC(C5)N6)nc(OCC56CCCN5CC(F)C6)nc4c3F)c12 (stereo not given) + Cc1nc(NC(=O)N2CCCC2C(N)=O)sc1-c1ccnc(C(C)(C)C(F)(F)F)c1
IC50 [1]: > 10000 nM | IC50 [2]: 7360 nM | IC50 [3]: 5640 nM | IC50 [4]: 3090 nM | IC50 [5]: 960 nM | IC50 [6]: < 31.6 nM | viability, T/C [7]: 83.2% | viability, T/C [8]: 84.4% | viability, T/C [9]: 80.2% | viability, T/C [10]: 106% | viability, T/C [11]: 100% | viability, T/C [12]: 52.3% | viability, T/C [13]: 91.1% | viability, T/C [14]: 89.1% | viability, T/C [15]: 88.9% | viability, T/C [16]: 101% | viability, T/C [17]: 79.9% | viability, T/C [18]: 39.2% | viability, T/C [19]: 92.4% | viability, T/C [20]: 85.6% | viability, T/C [21]: 69.9% | viability, T/C [22]: 80.9% | viability, T/C [23]: 75.6% | viability, T/C [24]: 24.7% | viability, T/C [25]: 92.4% | viability, T/C [26]: 81.8% | viability, T/C [27]: 71.8% | viability, T/C [28]: 83.3% | viability, T/C [29]: 49.4% | viability, T/C [30]: 15.8% | viability, T/C [31]: 80.5% | viability, T/C [32]: 69.3% | viability, T/C [33]: 53.4% | viability, T/C [34]: 53.4% | viability, T/C [35]: 35.4% | viability, T/C [36]: 3.3% | viability, T/C [37]: 42.2% | viability, T/C [38]: 26.6% | viability, T/C [39]: 22.3% | viability, T/C [40]: 18.9% | viability, T/C [41]: 7.98% | viability, T/C [42]: 0.65%

CC1(C)CCC(Nc2ncc(C(F)(F)F)c(-c3c[nH]c4c(P(C)(C)=O)c(C#N)ccc34)n2)CN1 (stereo not given) + Cc1nc(NC(=O)N2CCCC2C(N)=O)sc1-c1ccnc(C(C)(C)C(F)(F)F)c1
IC50 [1]: < 31.6 nM | IC50 [2]: < 31.6 nM | IC50 [3]: < 31.6 nM | IC50 [4]: < 31.6 nM | IC50 [5]: < 31.6 nM | IC50 [6]: < 31.6 nM | viability, T/C [7]: 12.9% | viability, T/C [8]: 13.4% | viability, T/C [9]: 10.2% | viability, T/C [10]: 12.3% | viability, T/C [11]: 10.3% | viability, T/C [12]: 1.66% | viability, T/C [13]: 13.4% | viability, T/C [14]: 13.6% | viability, T/C [15]: 11% | viability, T/C [16]: 11.7% | viability, T/C [17]: 9.67% | viability, T/C [18]: 1.49% | viability, T/C [19]: 16.6% | viability, T/C [20]: 10.6% | viability, T/C [21]: 9.57% | viability, T/C [22]: 11.6% | viability, T/C [23]: 9.4% | viability, T/C [24]: 1.34% | viability, T/C [25]: 13.8% | viability, T/C [26]: 10.9% | viability, T/C [27]: 9.4% | viability, T/C [28]: 10.7% | viability, T/C [29]: 7.46% | viability, T/C [30]: 1.27% | viability, T/C [31]: 15.4% | viability, T/C [32]: 10.6% | viability, T/C [33]: 9.84% | viability, T/C [34]: 9.67% | viability, T/C [35]: 5.93% | viability, T/C [36]: 1.32% | viability, T/C [37]: 11% | viability, T/C [38]: 7.92% | viability, T/C [39]: 8.97% | viability, T/C [40]: 6.88% | viability, T/C [41]: 4.2% | viability, T/C [42]: 0.98%

Cn1ncc(Cl)c1-c1cc(C(=O)NC(CN)Cc2cccc(F)c2)sc1Cl (stereo not given) + Cc1nc(NC(=O)N2CCCC2C(N)=O)sc1-c1ccnc(C(C)(C)C(F)(F)F)c1
IC50 [1]: 327 nM | IC50 [2]: 272 nM | IC50 [3]: 289 nM | IC50 [4]: 221 nM | IC50 [5]: 89.5 nM | IC50 [6]: < 31.6 nM | viability, T/C [7]: 84.6% | viability, T/C [8]: 78.8% | viability, T/C [9]: 37.8% | viability, T/C [10]: 33.1% | viability, T/C [11]: 29.8% | viability, T/C [12]: 0.69% | viability, T/C [13]: 78.1% | viability, T/C [14]: 62.4% | viability, T/C [15]: 41.2% | viability, T/C [16]: 36% | viability, T/C [17]: 27.5% | viability, T/C [18]: 1.98% | viability, T/C [19]: 80.2% | viability, T/C [20]: 76.9% | viability, T/C [21]: 40.1% | viability, T/C [22]: 30.1% | viability, T/C [23]: 19.7% | viability, T/C [24]: 3.34% | viability, T/C [25]: 91.3% | viability, T/C [26]: 68% | viability, T/C [27]: 39.3% | viability, T/C [28]: 26.1% | viability, T/C [29]: 19.3% | viability, T/C [30]: 4.09% | viability, T/C [31]: 66.7% | viability, T/C [32]: 43.6% | viability, T/C [33]: 37.4% | viability, T/C [34]: 20.8% | viability, T/C [35]: 14.1% | viability, T/C [36]: 2.32% | viability, T/C [37]: 38.3% | viability, T/C [38]: 20.8% | viability, T/C [39]: 20.6% | viability, T/C [40]: 14.1% | viability, T/C [41]: 7.72% | viability, T/C [42]: 0.4%

Cn1ncc(Cl)c1-c1cc(C(=O)NC(CN)Cc2cccc(F)c2)sc1Cl (stereo not given)
viability, T/C (compound 0.0316 µM): 86.1% [middle of 4 runs] | viability, T/C (compound 0.1 µM): 69.6% and 66.7% (2×) and 83% | viability, T/C (compound 0.316 µM): 53.9% [middle of 4 runs] | viability, T/C (compound 1 µM): 34.2% [middle of 4 runs] | viability, T/C (compound 3.16 µM): 29.6% [middle of 4 runs] | viability, T/C (compound 10 µM): 15.4% [middle of 4 runs] | IC50 (curve of compound): 462 nM [middle of 4 runs]
